We go through one compound from patent publication US20220142967A1, “Methods and Compositions for the Treatment of Multiple Sclerosis” (SYMBIONYX PHARMACEUTICALS INC, priority 2018, published 2022).

The subject of one series is cultured astrocytes. Briefly: RNA-seq of cultured astrocytes compared with MS patient white matter astrocytes (GSE83670). The format is cell-based, human. The procedure:
Previously, Waller et al. 2016 (J Neuroimmunol 299:139-146) used laser capture microdissection (LCM) to isolate astrocytes from normal appearing white matter in MS patients and CTL subjects (GEO dataset GSE83670; PMID: 27125112).
cDNA sequencing was performed by the University of Michigan sequencing core facility (50 cycle single end Illumina HiSeq 2000). The FASTX-Toolkit was used to filter reads by removing low quality sequences and initial quality assessments were performed using FastQC. Quality-filtered reads were mapped to the human genome (hg38/GRCh38, UCSC) using tophat2 with default settings, except multi-mapping of reads to multiple genome locations was disallowed (settings: -g 1 —no-coverage-search). The hg38/GRCh38 genome is the most recent release available from UCSC. HTSeq was used to tabulate the number of reads mapping to each genome feature and Cufflinks was used to calculate FPKM estimates and associated confidence intervals. RSeQC was used to assess quality of mapping and calculate the percentage of mapped reads. The negative binomial model (edgeR) was used to evaluate differential expression, with read counts normalized using the weighted trimmed mean of M-values method, and dispersions estimated using the Cox-Reid (CR)-adjusted likelihood approach. Differential expression analyses were performed using genes with detectable expression in at least 1 of 4 samples involved in a given comparison. A gene was considered to have detectable expression in a sample if the count per million mapped reads (cpm) estimate was greater than 0.20 and if the lower bound of the FPKM 95% confidence interval was greater than zero.
FIG. 3 presents in scatterplot and histogram format the results of the study on the astrocytes. Scatterplots (A) and (D) compare fold change (FC) estimates in DMF-treated (A) and IDMF-treated (D) astrocytes to LCM-dissected astrocytes in MS patients and healthy controls (CTLs). Each point represents a protein-coding gene and the light colored ellipses outline the 90% of genes closest to the bivariate mean based upon the Mahalanobis distance. The Spearman rank correlation coefficient estimate is shown (upper-left). The proportion of genes within each quadrant is indicated in the upper margin (P<0.05, Fisher's exact test), wherein the quadrants are defined by a vertical and horizontal line through the “1” in each axis with the proportion corresponding, left to right to the upper left, the upper right, the lower right and lower left quadrants, respectively. Gene set overlap is presented in (B), (C), (E) and (F) wherein genes within each set were altered with a P<0.05 threshold. P-values from the test of overlap significance are shown (bottom margin, Fisher's exact test). […]

Series [1] concerns human fetal astrocytes derived from cerebral cortex. Briefly: Transcriptome analysis of astrocyte cultures treated with MMF, DRF, IDMF. Type of series: cell-based. The note with it: 2.5 μM, 24 hours. The method, then: Experiments were performed using human fetal astrocytes derived from cerebral cortex (cat. no. 882A-05f; Cell Applications, Sant Diego, Calif.). Cells were grown to subconfluence in human astrocyte growth medium (cat. no. 820-500, Cell Applications). […] Test materials were added to subconfluent cultures at a concentration of 2.5 μM and cells were incubated for 24 hours.
RNA was extracted following the incubation period using the RNAeasy Mini Plus kit (Qiagen, Hilden, Germany) and robotic Qiacube Connect station (Qiagen). Samples were shipped on dry ice to the Thermo Fisher Microarray Research Services Laboratory (Santa Clara, Calif.) for transcriptome analysis. RNA quality analysis was performed upon sample receipt using the NanoDrop Lite (Thermo Fisher Scientific, Waltham, Mass.). All samples had 260/280 nm absorbance ratios higher than 1.90, consistent with high-purity RNA.
In follow-up to the study of Example, 1 above, genes associated with multiple sclerosis were identified based upon seven established database sources: (1) the NHGRI-EBI genome-wide association (GWA) study catalogue, (2) the Disease Ontology (DO) database, (3) the DisGeNET (curated) database, (4) the DisGeNET (BeFree), (5) MalaCards, (6) the Medical Subject Heading (MESH) database and the KEGG Database. The impact on gene expression of IDMF, MMF and DRF on the key overlapping MS-associated genes was assessed.
The specific data for four of the key NFR2 target genes associated with antioxidant and anti-inflammatory effects is presented in FIGS. 7(A) thru 7(D).
Both TNFAIP3 and NFKBIA encode inhibitory proteins that suppress the NF-KB pathway. Specifically, TNFAIP3 encodes a deubiquitinating enzyme previously linked to MS by genetic association studies: a TNFAIP3 protein abundance is increased in white matter and cortical lesion astrocytes from MS patient brains. Similarly, NFKBIA (IκBα) encodes an NF-KB inhibitor for which promoter polymorphisms have been associated with MS and abundance of this protein is prominent in macrophage nuclei of MS plaques undergoing active demyelination. ICAM1 encodes an endothelial adhesion molecule that promotes leucocyte extravasation and is associated with the initiation and progression of inflammation as well as the targeting of inflammation in the central nervous system (CNS). FIGS. 9(A), 9(B) and 9(C) show the specific data for these three genes.
Genetic variants of IFR has been associated with MS and some MS treatments such as glatiramer acetate block cytokine-stimulated IRF1 up-regulation. An assessment was undertaken to assess the relative impact of fumarate esters, namely MMF, DRF and IDMF on IFR motif enrichment.

Counter-ions that a name gives are not always drawn.

Regarding `COC(=O)/C=C/C(=O)O[C@H]1CO[C@H]2[C@@H]1OC[C@H]2OC(=O)/C=C/C(=O)OC` [IDMF, isosorbide di-(methyl fumarate)], in the series with cultured astrocytes, the “number of genes decreased by IDMF (P<0.05) and increased in MS (P<0.05)” value is recorded as 82 genes; the “protein-coding genes increased by IDMF (FC>1.00) but decreased in MS patients (FC<1.00)” value was determined as 35.08%. In addition, in the series on cultured astrocytes (cultured astrocytes vs. LCM-dissected MS patient astrocytes), the “correlation of genome-wide expression responses with those observed in MS patients (Spearman r)” value is reported as “negatively correlated”. In series [1], the IRF1 expression entry is “marked downregulation”; the “effect on NRF2 target genes compared with MMF and DRF” value was “much more pronounced effect”; the “effect on TNFAIP3, NFKBIA and ICAM1 expression” value is “marked downregulation”; the “expression of heme oxygenase-1 (HMOX1)” value was “marked increase in expression”.
